Assays:
[1] = test system: B6 Jα18 KO mice splenocytes; experiment: FACS analyses of Jα18 KO mouse immune cells after glycolipid stimulation; assay type: in vivo; settings: 1 μg/mouse i.v.; 3 days
Protocol: B6 Jα18 KO mice treated with the indicated glycolipid (1 μg/mouse) or vehicle (% DMSO in PBS) were sacrificed at 72 hr post-injection and their splenocytes were subjected to FACS analysis. (9A) The total splenocytes, (9B) total CD11Chi cells, (9C) CD11Chi/CD80+ cells, (9D) CD11Chi/CD86+ cells, (9E) CD4^+ T cells and (9F) CD8^+ T cells (student t test: *, p<0.05, as compared to D).
B6 WT or Jα18 KO mice treated with specific glycolipid (1 μg/mouse) or vehicle (1% DMSO in PBS) were sacrificed at 72 hr post-injection and their spleens were harvested. After pressing spleens through 70 um strainer and lysis of erythrocytes, the nucleated cells were resuspended in PBS buffer containing azide (0.05%) and stained with antibodies recognizing the indicated cell surface antigens for 30 min at 4° C. After washing, the splenocytes were subjected to FACS analysis. The antibodies against CD3, CD4, CD8α, CD11c, CD80, and CD86 were obtained from BD Bioscience-Pharmingen.
Unexpectedly, we also observed that 7DW8-5-Glc induced chemokines in Jα18 KO mice (FIG. 7).

[2] = test system: mCD1d dimer; experiment: Binding strength of the binary complex between mCD1d and glycolipid (L363 antibody ELISA); set-up: species or system mouse
Protocol: (10A, 10B) Different concentrations of mCD1d-glycolipid complexes coated on the ELISA plate were incubated with the saturated amount of L363 antibody conjugated with biotin, followed by streptavidin-HRP detection and ELISA measurement. (10A) The relationship between OD values reflecting L363 antibody binding and the concentration of CD1ddi-glycolipids complex was plotted. (10B) The dissociation constant (KD) between L363 antibody and the indicated mCD1d-glycolipid complex was calculated as described in Materials and methods. (10C) The relationship between OD values reflecting L363 antibody binding and the concentration of glycolipids was plotted. (10D) KD values of the binary complex were calculated from the linear regression of the Scatchard transformation of the L363 antibody binding curve (10C).
Different concentrations of mCD1d^di-glycolipid complexes coated on the ELISA plate were incubated with the saturated amounts of L363 antibody (BioLegend) conjugated with biotin, followed by streptavidin-HRP detection and ELISA measurement. The KD between L363 antibody and the indicated mCD1d^di-glycolipid complex was calculated from the linear regression of the Scatchard transformation of the L363 antibody binding curve using GraphPad Prism software. […] Next, the KD of the binary complex was determined as follows. […]

[3] = test system: C1-pulsed splenocytes; experiment: CD1d dimer staining of in vivo C1-pulsed splenocytes; assay type: binding, B6 WT mice; settings: CD3+/CD45R− gated; 3 days after C1 1 μg/mouse
Protocol: B6 WT splenocytes (n=3) were harvested 3 days after injection with C1 (1 μg/mouse) and stained with CD3, CD45R and the indicated dimer complex conjugated with RPE for 1 hr at 4 degrees Celsius. (11A) CD3+/CD45R− cells were gated to analyze the dimer staining. (11B) unloaded dimer was used as the control. (11C) mCD1d dimer loaded with 7DW8-5-Glc stained 17.1±0.8% of C1-pulsed splenocytes. (11D) mCD1d dimer loaded with 7DW8-5 stained 36.2±5.0% of C1-pulsed splenocytes.

[4] = molecular target: Vα24+/Vβ11+ iNKT TCR (Homo sapiens, UniProt A0A075B6N4+A0A0B4J240+P15813); experiment: Binding avidity of hCD1d-loaded glycolipids with Vα24+ iNKT cells (ternary interaction); settings: for Kd: in complex with hCD1d, Scatchard transformation, read-out: KD of ternary complex, hCD1d-glycolipid toward Vα24+/Vβ11+ iNKT TCR
Protocol: (3A) DN3A4-1.2 Vα14+ iNKT hybridoma cells and (3B) 7DW8-5-expanded Vα24^+ iNKT cells were incubated with various concentrations of the indicated dimeric mCD d-glycolipid and hCD1d-glycolipid complexes for 30 min at 4° C., respectively. The level of bound complexes at the indicated concentration was detected by anti-mIgG1 secondary antibody and analyzed by flow cytometry. The relationship between the binding percentage and the concentration of CD1ddi-glycolipids complex was plotted in mice (3A) and humans (3B). KD values in mice (3C) and humans (3D) were calculated from Scatchard transformation of the plot (3A) and 3B), respectively. Assay was performed in duplicates. Binding avidity of human CD1d-glycolipid complexes to Vα24^+ iNKT cells expanded by 7DW8-5 at 100 ng/ml was determined as described previously.^19 Next, we measured the ternary interaction between CD1d-glcolipid complex and the iNKT TCR in mice and humans. Different concentrations of mCD1d^di-glycolipid and hCD1d^di-glycolipid complexes were incubated with fixed amounts of DN3A4-1.2 murine iNKT hybridoma cells and human Vα24+/Vβ11^+ iNKT cells, respectively. The level of bound complexes at the indicated concentration was detected by anti-mIgG1 secondary antibody and analyzed by flow cytometry (FIGS. 3A and 3B). The KD of the ternary complex was calculated from the Scatchard transformation of the plots in FIGS. 3A and 3B using GraphPad Prism software. […] This was consistent with the observation that higher percentages of C1-pulsed splenocytes were stained by the mCD1d-7DW8-5 complex (36.2±5.0%) than mCD1d-7DW8-5-Glc complex (17.1±0.8%) (FIG. 11).

Vα24+/Vβ11+ iNKT TCR, sequence (P01848 whole entry): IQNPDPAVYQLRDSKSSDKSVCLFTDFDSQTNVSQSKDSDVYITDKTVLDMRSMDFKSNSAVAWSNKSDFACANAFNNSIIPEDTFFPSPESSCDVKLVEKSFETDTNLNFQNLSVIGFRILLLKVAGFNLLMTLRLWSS
Vα24+/Vβ11+ iNKT TCR, sequence (A0A075B6N4 22-114): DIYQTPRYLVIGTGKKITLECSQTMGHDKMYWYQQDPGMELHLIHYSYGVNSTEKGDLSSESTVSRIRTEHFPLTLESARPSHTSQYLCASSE
Vα24+/Vβ11+ iNKT TCR, sequence (P61769 21-119, further chain): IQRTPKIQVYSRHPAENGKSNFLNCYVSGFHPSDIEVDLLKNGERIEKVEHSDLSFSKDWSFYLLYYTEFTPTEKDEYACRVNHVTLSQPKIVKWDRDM
Vα24+/Vβ11+ iNKT TCR, sequence (A0A0B4J240 22-114): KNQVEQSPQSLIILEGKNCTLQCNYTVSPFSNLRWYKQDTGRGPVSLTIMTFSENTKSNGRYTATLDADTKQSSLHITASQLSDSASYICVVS
Vα24+/Vβ11+ iNKT TCR, sequence (P15813 20-301): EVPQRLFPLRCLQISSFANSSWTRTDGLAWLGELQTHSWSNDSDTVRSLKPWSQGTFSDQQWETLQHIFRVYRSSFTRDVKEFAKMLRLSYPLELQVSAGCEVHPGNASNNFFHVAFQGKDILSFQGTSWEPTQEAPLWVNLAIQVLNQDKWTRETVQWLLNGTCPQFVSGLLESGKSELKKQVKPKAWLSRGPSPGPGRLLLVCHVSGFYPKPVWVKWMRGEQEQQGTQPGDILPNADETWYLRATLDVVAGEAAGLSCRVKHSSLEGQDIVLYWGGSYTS

SMILES	total splenocytes, CD4+ T and CD8+ T cells in Jα18 KO mice [1]	binding avidity to mCD1d dimer, fold greater than αGalCer [2] [fold]	percentage of C1-pulsed splenocytes stained by mCD1d dimer loaded with glycolipid [3] [%]	Kd [4] [pM]	expansion/activation of CD11chi monocyte-derived DCs in Jα18 KO mice [1]	staining of human iNKT cells with CD1d-glycolipid dimer [4]
CCCCCCCCCCCCCC[C@@H](O)[C@@H](O)[C@H](CO[C@H]1O[C@H](CO)[C@H](O)[C@H](O)[C@H]1O)NC(=O)CCCCCCCCCCc1ccc(F)cc1 [Compound 7DW8-5, reference compound]	No significant differences	~20	36.2±5.0	777 ± 22	–	–
CC[C@@H](O)[C@@H](O)[C@H](CO[C@H]1OC(CO)[C@@H](O)C(O)C1O)NC(=O)Cc1ccc(F)cc1 (stereo partly shown) [Compound 7DW8-5-Glc]	No significant differences	~20	17.1±0.8	481 ± 8	significantly expanded and activated	–
CCCCCCCCCCCCCC[C@@H](O)[C@@H](O)[C@H](CO[C@H]1O[C@H](CO)[C@@H](O)[C@H](O)[C@@H]1O)NC(=O)CCCCCCCCCCc1ccc(F)cc1 [Compound 7DW8-5-Man]	–	–	–	–	–	lack of staining

Reference: patent US10533034B2, “Human iNKT cell activation using glycolipids” (ACADEMIA SINICA, priority 2014, dated 2020)
